{"source": "patent US12529022B2", "about": "“Human organ-on-chip models for predictive screening” (The Trustees of Columbia University in the City of New York, priority 2018, dated 2026)", "tested_on": "metastatic (SK-N-MC cell line derived) Ewing sarcoma OOC", "experiment": "Metastatic Ewing sarcoma OOC, luciferase luminescence (cancer cell number and viability)", "format": "cell-based, human", "conditions": "12 μM", "method": "Drug treatment experiments recapitulating the patient treatment regimens and the patient plasma concentration of 12 μM of linsitinib were then carried out on the nonmetastatic and metastatic TE-ES and OS models. FIGS. 42 and 43 are graphs illustrating non-metastatic (RD-ES cell line derived, FIG. 42) and metastatic (SK-N-MC cell line derived, FIG. 43) Ewing sarcoma OOCs were exposed to linsitinib (12 μM) according to the drug treatment regimen. Luminescence as a function of cancer cell number and viability was measured (mean±s.e.m., n=6 for day 3, and n=3 for day 7 and 21, biologically independent per group). Significance was determined by unpaired two-tailed Student's t test of treatment group at specific day with respective control; *P<0.05; **P<0.01; ***P<0.001. Tissue engineered bone tumor models: Using an established protocol, expanded MSCs were seeded into the bone matrix scaffolds (4 mm×4 mm×1 mm) at a concentration of 10^6 cells per scaffold, using 40 μL of medium. The cells were allowed to attach for 2 hours, and then supplemented with additional mesenchymal stem cell medium overnight. The following day, osteogenic differentiation of the seeded cells was initiated by addition of low glucose DMEM supplemented with 1 μM dexamethasone (Sigma-Aldrich), 10 mM β-glycerophosphate (SigmaAldrich), and 50 μM L-ascorbic acid-2-phosphate (Sigma Aldrich). Each scaffold was incubated in 4 mL of osteogenic media, with media changes three times a week, for 3 weeks, allowing for the MSCs to differentiate into functional, maturing osteoblasts. Two weeks following the initiation of osteogenic differentiation, aggregates of tumor cells were prepared as described previously. Briefly, 0.3×10^6 cells were used to form ES aggregates and 0.5×10^6 cells were used to form OS aggregates. After 1 week of culture, the primary bone tumor aggregates were infused into the differentiated osteoblastseeded bone scaffolds (3 aggregates per scaffold, placed apart of each other). Tumor models were established for each of the two ES cell types (non-metastatic RD-ES, metastatic SK-NMC) and three OS cell types (non-metastatic U2-OS and Saos2, metastatic KHOS/NP). TE-RD-ES were cultured in the RPMI medium, TE-U-2 OS in DMEM, TE-Saos2 in McCoy's 5A, and TESK-N-MC and TE-KHOS/NP both in EMEM. Scaffolds without aggregates were used as healthy bone controls for each tumor model (termed TE-bone) and were cultured in the respective cancer cell line medium. All culture media were supplemented with 10% FBS and 1% penicillin/streptomycin. […] Tissues were randomly assigned to experimental groups. Medium was changed every day. Cardiac tissues were exposed to linsitinib for 3 days. The bone tumor models were exposed to a physiological treatment regimen consisted of cycles that involved 3 consecutive days of treatment followed by 4 days without drug, unless otherwise stated. Cell viability: Cancer cell viability was measured for GFP-Luciferase labelled cancer cells using ONE-Glo luciferase substrate that was prepared according to manufacturer's protocol (Promega). Samples were collected following 3, 7, and 21-day cycles of Linsitinib treatment. Cardiac cell viability was assessed through the Pierce LDH Cytotoxicity Assay Kit (Thermo Fisher Scientific). Samples were collected at 0 h, 1 h and 72 h."}
{"smiles": "C[C@]1(O)C[C@@H](c2nc(-c3ccc4ccc(-c5ccccc5)nc4c3)c3c(N)nccn32)C1", "note": "[linsitinib, Linsitinib (OSI-906)]", "values": [{"measurement": "course of treated cancer cell population", "setting": "21-day treatment cycle", "result": "continued to expand throughout the 21-day treatment cycle"}, {"measurement": "drug efficacy after day 3", "setting": "after 3 days", "result": "decrease in drug efficacy"}, {"measurement": "luminescence (cancer cell number and viability) vs control", "setting": "day 3", "result": "significant drug response"}, {"measurement": "luminescence (cancer cell number and viability) vs control", "setting": "day 7", "result": "significant responses"}, {"measurement": "luminescence (cancer cell number and viability) vs control", "setting": "day 21", "result": "significant responses"}]}
